Tested on: attenuated E. coli K12 strain with a kanamycin resistance gene
Assay: colorimetric phenotypic antibiotic susceptibility test (phenol red) in capillary tubes
Type: cell-based
Settings: bacteria culture incubated in capillary tubes with added antibiotic; LB media, 0.05% phenol red; read at the 4-hour mark
Experimental: According to an embodiment, a colorimetric phenotypic testing approach was utilized to assess the antibiotic susceptibility of an attenuated E. coli K12 strain. The pH indicator phenol red was used to provide a phenotypic indication of bacterial growth. For colorimetric phenotypic testing approach, bacterial growth tests were conducted with small sample volumes in a PDMS microchip. The E. coli strain with a kanamycin resistance gene as a selection marker was first streaked and incubated overnight on LB agar plates containing kanamycin. Single colonies were subsequently picked and propagated in liquid bulk culture. Following overnight bulk culture to stationary phase, small volumes (˜1 μL) of culture were separately incubated on the PDMS chip in wells each containing a 19 μL mixture of fresh LB media, 0.05% phenol red, and the antibiotics kanamycin (control) and ampicillin (test). The metabolic activity of viable bacteria leads to an accumulation of organic acids in the growth media, which causes the phenol red to change in color from red to yellow, which is expected for the control group as the E. coli stain is kanamycin resistant.
A similar experiment was conducted by incubating the bacteria culture in capillary tubes designed to hold microliters of liquid. […]

CC1(C)S[C@@H]2[C@H](NC(=O)[C@H](N)c3ccccc3)C(=O)N2[C@H]1C(=O)O [ampicillin]
color change of phenol red pH indicator (phenotypic indication of bacterial growth): No color change

Reference: patent US10345295B2, “Device and method for point-of-care diagnostics and antibiotic resistance identification, and applications thereof” (CORNELL UNIVERSITY, priority 2015, dated 2019)
